Our source for the inhibition values is ChEMBL document CHEMBL5442219.

Details in all cases: Compound concentration 10 µM
For assay [1], the target named is T1, Alpha-1A adrenergic receptor (Homo sapiens) (UniProt P35348).
T1 sequence (whole entry): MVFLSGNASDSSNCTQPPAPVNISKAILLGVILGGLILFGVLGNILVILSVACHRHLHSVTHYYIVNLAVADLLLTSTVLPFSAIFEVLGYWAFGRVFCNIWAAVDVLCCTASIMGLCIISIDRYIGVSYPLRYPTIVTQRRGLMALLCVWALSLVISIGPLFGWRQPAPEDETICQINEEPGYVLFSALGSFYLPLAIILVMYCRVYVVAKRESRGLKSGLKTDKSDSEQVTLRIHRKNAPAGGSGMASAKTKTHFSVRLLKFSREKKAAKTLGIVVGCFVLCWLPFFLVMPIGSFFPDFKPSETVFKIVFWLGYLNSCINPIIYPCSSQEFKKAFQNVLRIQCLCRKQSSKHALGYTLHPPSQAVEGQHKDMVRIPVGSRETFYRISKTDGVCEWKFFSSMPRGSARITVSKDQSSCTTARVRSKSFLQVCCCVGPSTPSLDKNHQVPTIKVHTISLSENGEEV
Description: PDSP Primary Binding target: ADRA1A - Compounds are tested at 10 uM concentration, plate are incubated at room temperature in the dark for 90 minutes. Reaction are stopped by vacuum filtration onto 0.3% polyethyleneimine soaked filter mats using Filtermate harvester. Scintilation cocktail is then melted onto microwave-dried filters on a hot plate and the radio activity is counted in Microbia counter.

Assay [2] deals with 5-hydroxytryptamine receptor 1B (Homo sapiens) (UniProt P28222).
Description: PDSP Primary Binding target: HTR1B - Compounds are tested at 10 uM concentration, plate are incubated at room temperature in the dark for 90 minutes. Reaction are stopped by vacuum filtration onto 0.3% polyethyleneimine soaked filter mats using Filtermate harvester. Scintilation cocktail is then melted onto microwave-dried filters on a hot plate and the radio activity is counted in Microbia counter.
For assay [3], the target named is Sodium-dependent dopamine transporter (Homo sapiens) (UniProt Q01959).
Description: PDSP Primary Binding target: SLC6A3 - Compounds are tested at 10 uM concentration, plate are incubated at room temperature in the dark for 90 minutes. Reaction are stopped by vacuum filtration onto 0.3% polyethyleneimine soaked filter mats using Filtermate harvester. Scintilation cocktail is then melted onto microwave-dried filters on a hot plate and the radio activity is counted in Microbia counter.
Assay [4] has as its target Sigma non-opioid intracellular receptor 1 (Homo sapiens) (UniProt Q99720).
Description: PDSP Primary Binding target: SIGMAR1 - Compounds are tested at 10 uM concentration, plate are incubated at room temperature in the dark for 90 minutes. Reaction are stopped by vacuum filtration onto 0.3% polyethyleneimine soaked filter mats using Filtermate harvester. Scintilation cocktail is then melted onto microwave-dried filters on a hot plate and the radio activity is counted in Microbia counter.
In assay [5] the target is T2, Muscarinic acetylcholine receptor M1 (Homo sapiens) (UniProt P11229).
T2 sequence (whole entry): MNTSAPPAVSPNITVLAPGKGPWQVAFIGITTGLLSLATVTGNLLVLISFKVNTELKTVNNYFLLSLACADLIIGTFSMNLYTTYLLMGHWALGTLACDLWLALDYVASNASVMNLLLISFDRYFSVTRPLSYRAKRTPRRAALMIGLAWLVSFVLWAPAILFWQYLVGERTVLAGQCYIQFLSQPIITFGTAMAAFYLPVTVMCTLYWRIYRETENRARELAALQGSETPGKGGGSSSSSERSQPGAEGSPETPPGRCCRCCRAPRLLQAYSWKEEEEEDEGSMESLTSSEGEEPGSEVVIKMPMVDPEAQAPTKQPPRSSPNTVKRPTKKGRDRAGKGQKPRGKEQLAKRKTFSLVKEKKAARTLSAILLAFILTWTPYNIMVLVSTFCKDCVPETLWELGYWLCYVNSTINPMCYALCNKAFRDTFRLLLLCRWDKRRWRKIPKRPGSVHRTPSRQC
Description: PDSP Primary Binding target: CHRM1 - Compounds are tested at 10 uM concentration, plate are incubated at room temperature in the dark for 90 minutes. Reaction are stopped by vacuum filtration onto 0.3% polyethyleneimine soaked filter mats using Filtermate harvester. Scintilation cocktail is then melted onto microwave-dried filters on a hot plate and the radio activity is counted in Microbia counter.

Assay [6] deals with D(1A) dopamine receptor (Homo sapiens) (UniProt P21728).
Description: PDSP Primary Binding target: DRD1 - Compounds are tested at 10 uM concentration, plate are incubated at room temperature in the dark for 90 minutes. Reaction are stopped by vacuum filtration onto 0.3% polyethyleneimine soaked filter mats using Filtermate harvester. Scintilation cocktail is then melted onto microwave-dried filters on a hot plate and the radio activity is counted in Microbia counter.
In assay [7] the target is Sodium-dependent noradrenaline transporter (Homo sapiens) (UniProt P23975).
Description: PDSP Primary Binding target: SLC6A2 - Compounds are tested at 10 uM concentration, plate are incubated at room temperature in the dark for 90 minutes. Reaction are stopped by vacuum filtration onto 0.3% polyethyleneimine soaked filter mats using Filtermate harvester. Scintilation cocktail is then melted onto microwave-dried filters on a hot plate and the radio activity is counted in Microbia counter.
Assay [8] addresses Beta-1 adrenergic receptor (Homo sapiens) (UniProt P08588).
Description: PDSP Primary Binding target: ADRB1 - Compounds are tested at 10 uM concentration, plate are incubated at room temperature in the dark for 90 minutes. Reaction are stopped by vacuum filtration onto 0.3% polyethyleneimine soaked filter mats using Filtermate harvester. Scintilation cocktail is then melted onto microwave-dried filters on a hot plate and the radio activity is counted in Microbia counter.
In assay [9] the target is 5-hydroxytryptamine receptor 1D (Homo sapiens) (UniProt P28221).
Description: PDSP Primary Binding target: HTR1D - Compounds are tested at 10 uM concentration, plate are incubated at room temperature in the dark for 90 minutes. Reaction are stopped by vacuum filtration onto 0.3% polyethyleneimine soaked filter mats using Filtermate harvester. Scintilation cocktail is then melted onto microwave-dried filters on a hot plate and the radio activity is counted in Microbia counter.
Assay [10] addresses D(1B) dopamine receptor (Homo sapiens) (UniProt P21918).
Description: PDSP Primary Binding target: DRD5 - Compounds are tested at 10 uM concentration, plate are incubated at room temperature in the dark for 90 minutes. Reaction are stopped by vacuum filtration onto 0.3% polyethyleneimine soaked filter mats using Filtermate harvester. Scintilation cocktail is then melted onto microwave-dried filters on a hot plate and the radio activity is counted in Microbia counter.
The target in assay [11] is 5-hydroxytryptamine receptor 7 (Homo sapiens) (UniProt P34969).
Description: PDSP Primary Binding target: HTR7 - Compounds are tested at 10 uM concentration, plate are incubated at room temperature in the dark for 90 minutes. Reaction are stopped by vacuum filtration onto 0.3% polyethyleneimine soaked filter mats using Filtermate harvester. Scintilation cocktail is then melted onto microwave-dried filters on a hot plate and the radio activity is counted in Microbia counter.
Assay [12] has as its target D(2) dopamine receptor (Homo sapiens) (UniProt P14416).
Description: PDSP Primary Binding target: DRD2 - Compounds are tested at 10 uM concentration, plate are incubated at room temperature in the dark for 90 minutes. Reaction are stopped by vacuum filtration onto 0.3% polyethyleneimine soaked filter mats using Filtermate harvester. Scintilation cocktail is then melted onto microwave-dried filters on a hot plate and the radio activity is counted in Microbia counter.
Assay [13] has as its target T3, Muscarinic acetylcholine receptor M5 (Homo sapiens) (UniProt P08912).
T3 sequence (whole entry): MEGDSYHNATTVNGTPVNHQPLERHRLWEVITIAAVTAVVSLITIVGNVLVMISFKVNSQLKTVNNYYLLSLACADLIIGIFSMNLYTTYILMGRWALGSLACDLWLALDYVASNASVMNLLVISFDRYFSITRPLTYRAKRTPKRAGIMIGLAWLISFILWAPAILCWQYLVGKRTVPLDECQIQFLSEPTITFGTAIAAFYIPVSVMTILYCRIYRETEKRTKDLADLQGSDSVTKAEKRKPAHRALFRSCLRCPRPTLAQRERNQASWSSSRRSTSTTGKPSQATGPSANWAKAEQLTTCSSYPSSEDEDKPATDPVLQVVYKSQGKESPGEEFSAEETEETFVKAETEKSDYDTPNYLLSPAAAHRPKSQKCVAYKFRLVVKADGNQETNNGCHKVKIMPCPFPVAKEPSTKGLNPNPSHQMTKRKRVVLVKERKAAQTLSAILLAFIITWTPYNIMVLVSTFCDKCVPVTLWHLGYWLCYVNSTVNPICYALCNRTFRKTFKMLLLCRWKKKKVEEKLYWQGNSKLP
Description: PDSP Primary Binding target: CHRM5 - Compounds are tested at 10 uM concentration, plate are incubated at room temperature in the dark for 90 minutes. Reaction are stopped by vacuum filtration onto 0.3% polyethyleneimine soaked filter mats using Filtermate harvester. Scintilation cocktail is then melted onto microwave-dried filters on a hot plate and the radio activity is counted in Microbia counter.

The target of assay [14] is T4, Muscarinic acetylcholine receptor M4 (Homo sapiens) (UniProt P08173).
T4 sequence (whole entry): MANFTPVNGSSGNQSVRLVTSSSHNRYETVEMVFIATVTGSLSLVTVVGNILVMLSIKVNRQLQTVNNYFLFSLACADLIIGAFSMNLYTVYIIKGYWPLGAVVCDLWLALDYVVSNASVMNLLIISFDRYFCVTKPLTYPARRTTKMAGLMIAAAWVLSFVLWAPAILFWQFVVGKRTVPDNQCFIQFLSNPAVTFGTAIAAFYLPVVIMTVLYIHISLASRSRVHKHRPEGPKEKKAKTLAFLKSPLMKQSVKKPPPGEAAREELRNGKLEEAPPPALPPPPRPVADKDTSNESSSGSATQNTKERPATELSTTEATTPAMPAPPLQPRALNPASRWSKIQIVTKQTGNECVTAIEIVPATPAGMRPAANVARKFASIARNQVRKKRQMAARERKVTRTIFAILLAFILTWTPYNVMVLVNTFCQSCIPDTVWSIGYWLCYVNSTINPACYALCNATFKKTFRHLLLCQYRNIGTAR
Description: PDSP Primary Binding target: CHRM4 - Compounds are tested at 10 uM concentration, plate are incubated at room temperature in the dark for 90 minutes. Reaction are stopped by vacuum filtration onto 0.3% polyethyleneimine soaked filter mats using Filtermate harvester. Scintilation cocktail is then melted onto microwave-dried filters on a hot plate and the radio activity is counted in Microbia counter.

In assay [15] the target is Muscarinic acetylcholine receptor M3 (Homo sapiens) (UniProt P20309).
Description: PDSP Primary Binding target: CHRM3 - Compounds are tested at 10 uM concentration, plate are incubated at room temperature in the dark for 90 minutes. Reaction are stopped by vacuum filtration onto 0.3% polyethyleneimine soaked filter mats using Filtermate harvester. Scintilation cocktail is then melted onto microwave-dried filters on a hot plate and the radio activity is counted in Microbia counter.
Assay [16] addresses Histamine H3 receptor (Homo sapiens) (UniProt Q9Y5N1).
Description: PDSP Primary Binding target: HRH3 - Compounds are tested at 10 uM concentration, plate are incubated at room temperature in the dark for 90 minutes. Reaction are stopped by vacuum filtration onto 0.3% polyethyleneimine soaked filter mats using Filtermate harvester. Scintilation cocktail is then melted onto microwave-dried filters on a hot plate and the radio activity is counted in Microbia counter.

Histamine H3 receptor (Homo sapiens), sequence (Q9Y5N1 whole entry): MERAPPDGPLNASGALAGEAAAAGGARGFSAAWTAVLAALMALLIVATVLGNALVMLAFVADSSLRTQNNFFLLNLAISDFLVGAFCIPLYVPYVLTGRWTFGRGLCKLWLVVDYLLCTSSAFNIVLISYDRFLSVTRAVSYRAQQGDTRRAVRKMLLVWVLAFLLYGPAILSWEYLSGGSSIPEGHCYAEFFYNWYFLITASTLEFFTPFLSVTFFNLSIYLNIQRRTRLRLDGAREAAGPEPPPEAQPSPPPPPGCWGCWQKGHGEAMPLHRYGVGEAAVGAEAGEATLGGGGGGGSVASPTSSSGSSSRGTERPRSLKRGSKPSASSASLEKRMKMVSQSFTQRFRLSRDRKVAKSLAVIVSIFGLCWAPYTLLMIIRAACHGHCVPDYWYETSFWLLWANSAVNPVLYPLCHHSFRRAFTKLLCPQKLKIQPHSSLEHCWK
Sodium-dependent dopamine transporter (Homo sapiens), sequence (Q01959 whole entry): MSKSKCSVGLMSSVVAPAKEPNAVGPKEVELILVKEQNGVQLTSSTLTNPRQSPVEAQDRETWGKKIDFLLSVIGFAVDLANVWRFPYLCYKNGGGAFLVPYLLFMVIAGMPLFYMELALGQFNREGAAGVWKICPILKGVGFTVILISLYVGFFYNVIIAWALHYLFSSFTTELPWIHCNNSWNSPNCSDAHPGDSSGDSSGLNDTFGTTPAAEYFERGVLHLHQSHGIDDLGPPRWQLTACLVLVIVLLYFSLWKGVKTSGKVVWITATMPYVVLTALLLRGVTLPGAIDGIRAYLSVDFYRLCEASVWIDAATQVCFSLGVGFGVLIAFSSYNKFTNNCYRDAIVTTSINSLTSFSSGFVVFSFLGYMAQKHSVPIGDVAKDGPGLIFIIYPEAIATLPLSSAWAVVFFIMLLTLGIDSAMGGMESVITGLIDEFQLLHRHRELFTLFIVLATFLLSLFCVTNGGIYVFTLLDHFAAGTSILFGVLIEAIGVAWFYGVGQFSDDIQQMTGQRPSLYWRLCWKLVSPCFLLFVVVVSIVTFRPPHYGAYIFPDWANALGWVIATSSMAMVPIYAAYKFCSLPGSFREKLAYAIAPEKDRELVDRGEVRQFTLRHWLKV
D(1A) dopamine receptor (Homo sapiens), sequence (P21728 whole entry): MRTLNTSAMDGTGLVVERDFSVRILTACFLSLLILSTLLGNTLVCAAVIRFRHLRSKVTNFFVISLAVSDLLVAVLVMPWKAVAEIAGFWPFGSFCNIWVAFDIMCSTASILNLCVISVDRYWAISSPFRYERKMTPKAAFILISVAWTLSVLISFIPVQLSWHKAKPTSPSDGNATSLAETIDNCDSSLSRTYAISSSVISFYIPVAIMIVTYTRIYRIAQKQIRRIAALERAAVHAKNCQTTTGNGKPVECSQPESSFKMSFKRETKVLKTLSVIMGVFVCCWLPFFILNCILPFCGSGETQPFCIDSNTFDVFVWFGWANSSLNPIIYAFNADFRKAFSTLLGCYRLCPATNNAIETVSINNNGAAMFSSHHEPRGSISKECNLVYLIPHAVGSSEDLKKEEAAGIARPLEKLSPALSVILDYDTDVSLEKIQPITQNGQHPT
Beta-1 adrenergic receptor (Homo sapiens), sequence (P08588 whole entry, looked up): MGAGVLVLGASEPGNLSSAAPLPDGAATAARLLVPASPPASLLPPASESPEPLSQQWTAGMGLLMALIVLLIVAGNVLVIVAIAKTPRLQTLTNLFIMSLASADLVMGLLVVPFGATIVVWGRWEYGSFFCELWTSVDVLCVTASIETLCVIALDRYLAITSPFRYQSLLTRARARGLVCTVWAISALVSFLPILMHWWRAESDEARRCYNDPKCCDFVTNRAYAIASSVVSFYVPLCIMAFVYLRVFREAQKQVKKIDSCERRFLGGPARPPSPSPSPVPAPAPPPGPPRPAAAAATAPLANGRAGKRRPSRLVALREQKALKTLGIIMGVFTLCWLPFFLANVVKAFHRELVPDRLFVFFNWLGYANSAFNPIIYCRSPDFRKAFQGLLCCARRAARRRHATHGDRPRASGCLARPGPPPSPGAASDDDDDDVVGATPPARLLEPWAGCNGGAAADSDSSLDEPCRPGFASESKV
Muscarinic acetylcholine receptor M3 (Homo sapiens), sequence (P20309 whole entry, looked up): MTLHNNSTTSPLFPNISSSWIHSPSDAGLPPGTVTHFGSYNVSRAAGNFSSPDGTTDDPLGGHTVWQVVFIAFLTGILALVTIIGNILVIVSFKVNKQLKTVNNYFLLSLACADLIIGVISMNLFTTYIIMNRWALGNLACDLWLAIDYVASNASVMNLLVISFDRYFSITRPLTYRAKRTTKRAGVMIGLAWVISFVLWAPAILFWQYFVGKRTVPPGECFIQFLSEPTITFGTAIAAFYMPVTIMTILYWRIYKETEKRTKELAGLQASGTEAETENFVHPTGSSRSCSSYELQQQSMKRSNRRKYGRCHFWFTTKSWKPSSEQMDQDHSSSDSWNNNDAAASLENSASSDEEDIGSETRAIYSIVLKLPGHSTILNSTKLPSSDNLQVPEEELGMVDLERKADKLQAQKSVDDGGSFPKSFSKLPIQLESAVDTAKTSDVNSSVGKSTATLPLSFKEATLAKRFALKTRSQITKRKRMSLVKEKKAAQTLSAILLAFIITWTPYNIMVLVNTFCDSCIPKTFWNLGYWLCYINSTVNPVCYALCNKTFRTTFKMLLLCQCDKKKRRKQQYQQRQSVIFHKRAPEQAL
5-hydroxytryptamine receptor 1D (Homo sapiens), sequence (P28221 whole entry): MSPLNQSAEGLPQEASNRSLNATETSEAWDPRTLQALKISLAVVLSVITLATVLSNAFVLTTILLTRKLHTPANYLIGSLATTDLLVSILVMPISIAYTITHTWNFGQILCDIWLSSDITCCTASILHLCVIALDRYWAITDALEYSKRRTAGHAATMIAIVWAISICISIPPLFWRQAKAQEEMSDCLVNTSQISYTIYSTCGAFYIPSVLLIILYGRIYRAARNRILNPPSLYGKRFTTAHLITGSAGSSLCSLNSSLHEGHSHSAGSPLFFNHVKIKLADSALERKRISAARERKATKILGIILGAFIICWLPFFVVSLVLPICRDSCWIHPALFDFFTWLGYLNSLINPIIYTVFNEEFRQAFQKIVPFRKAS
D(1B) dopamine receptor (Homo sapiens), sequence (P21918 whole entry): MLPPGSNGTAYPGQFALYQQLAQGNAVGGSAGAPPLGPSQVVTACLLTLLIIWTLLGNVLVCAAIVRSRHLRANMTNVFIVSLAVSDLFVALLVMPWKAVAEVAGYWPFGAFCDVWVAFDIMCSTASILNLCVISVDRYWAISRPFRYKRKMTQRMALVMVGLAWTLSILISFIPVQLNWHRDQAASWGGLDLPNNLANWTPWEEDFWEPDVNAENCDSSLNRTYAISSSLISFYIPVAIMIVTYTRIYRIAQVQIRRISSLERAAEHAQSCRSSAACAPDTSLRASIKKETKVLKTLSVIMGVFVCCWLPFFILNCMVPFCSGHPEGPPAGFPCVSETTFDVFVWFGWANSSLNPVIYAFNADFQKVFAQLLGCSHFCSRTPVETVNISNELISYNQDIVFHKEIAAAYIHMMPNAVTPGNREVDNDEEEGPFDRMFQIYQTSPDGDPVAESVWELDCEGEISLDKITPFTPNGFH
5-hydroxytryptamine receptor 1B (Homo sapiens), sequence (P28222 whole entry): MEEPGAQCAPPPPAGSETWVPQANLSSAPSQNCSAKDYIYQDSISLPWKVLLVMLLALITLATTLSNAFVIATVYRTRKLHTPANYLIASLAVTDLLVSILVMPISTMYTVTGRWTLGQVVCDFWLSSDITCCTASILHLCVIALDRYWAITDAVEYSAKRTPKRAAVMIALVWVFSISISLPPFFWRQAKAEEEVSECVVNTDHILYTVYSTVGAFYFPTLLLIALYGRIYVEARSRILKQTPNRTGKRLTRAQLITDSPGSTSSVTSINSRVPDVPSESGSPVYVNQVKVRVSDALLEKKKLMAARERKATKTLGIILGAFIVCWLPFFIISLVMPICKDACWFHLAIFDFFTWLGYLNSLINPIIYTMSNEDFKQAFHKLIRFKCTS
Sigma non-opioid intracellular receptor 1 (Homo sapiens), sequence (Q99720 whole entry): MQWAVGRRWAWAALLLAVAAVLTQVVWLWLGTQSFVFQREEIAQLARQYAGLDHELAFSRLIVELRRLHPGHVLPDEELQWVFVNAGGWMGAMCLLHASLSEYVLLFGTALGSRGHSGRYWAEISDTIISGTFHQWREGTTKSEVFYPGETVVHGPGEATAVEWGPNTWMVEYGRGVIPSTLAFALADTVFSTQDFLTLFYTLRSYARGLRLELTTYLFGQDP
D(2) dopamine receptor (Homo sapiens), sequence (P14416 whole entry): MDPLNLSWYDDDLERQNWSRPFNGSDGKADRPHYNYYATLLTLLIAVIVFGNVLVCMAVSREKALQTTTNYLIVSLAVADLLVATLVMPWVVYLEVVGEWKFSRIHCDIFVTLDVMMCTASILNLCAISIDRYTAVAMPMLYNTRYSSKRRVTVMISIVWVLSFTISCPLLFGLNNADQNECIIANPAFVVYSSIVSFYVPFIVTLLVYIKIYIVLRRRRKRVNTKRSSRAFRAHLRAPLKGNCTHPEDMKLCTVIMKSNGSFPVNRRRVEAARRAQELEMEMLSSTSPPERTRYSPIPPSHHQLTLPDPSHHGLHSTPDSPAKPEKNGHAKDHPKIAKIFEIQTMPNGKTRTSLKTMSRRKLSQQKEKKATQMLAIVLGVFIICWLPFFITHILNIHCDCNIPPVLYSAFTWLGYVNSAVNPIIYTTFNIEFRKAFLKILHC
5-hydroxytryptamine receptor 7 (Homo sapiens), sequence (P34969 whole entry): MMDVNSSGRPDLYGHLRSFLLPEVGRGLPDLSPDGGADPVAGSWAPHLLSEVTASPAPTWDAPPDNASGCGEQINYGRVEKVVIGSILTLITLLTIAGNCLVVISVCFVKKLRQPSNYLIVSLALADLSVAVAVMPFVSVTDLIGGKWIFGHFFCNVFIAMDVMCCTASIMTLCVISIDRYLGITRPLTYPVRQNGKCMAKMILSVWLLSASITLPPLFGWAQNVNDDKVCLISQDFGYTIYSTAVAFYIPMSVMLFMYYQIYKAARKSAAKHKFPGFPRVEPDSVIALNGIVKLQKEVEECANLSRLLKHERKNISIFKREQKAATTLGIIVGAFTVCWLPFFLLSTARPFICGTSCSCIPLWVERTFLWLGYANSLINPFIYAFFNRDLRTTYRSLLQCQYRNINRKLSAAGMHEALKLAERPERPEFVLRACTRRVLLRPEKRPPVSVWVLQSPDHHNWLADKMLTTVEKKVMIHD

As usually defined, the inhibition is the change of the read-out against control, counted positive when it falls. In the case of `NC[C@H](O)c1ccc(O)c(O)c1`, the inhibition is 7.82% in [1]; 10.7% in [2]; 21.8% in assay [3]; 39.1% in [4]; -6.89% in [5]; 2.57% in assay [6]. Further, the inhibition in assay [7] is 15.2%; in [8], 66.2%; in [9] it was 24.3%; in assay [10] it was 34.8%; in assay [11], -5%; in [12], 6.01%.

Turning to `CC(C)NCC(O)COc1cccc2[nH]ccc12` (stereo not given), the inhibition was 10.5% in assay [13]; 32% in assay [1]; 22% in assay [2]; 21.3% in assay [3]; 38.7% in assay [4]; 29.3% in assay [6]. Moreover, the inhibition is 27.1% in assay [7]; 70.9% in assay [8]; 4.2% in assay [14]; 50.9% in assay [9]; 26.3% in assay [10]; 37.8% in [11]. The inhibition in [12] is 30.5%.

Consider `CCc1nn(CCCN2CCN(c3cccc(Cl)c3)CC2)c(=O)n1CCOc1ccccc1`, for which the inhibition in assay [13] is 30.8%; in assay [15], 0.27%; in assay [1], 96%; in assay [2], 88%; in [3], 78.7%; in assay [4], 1.48%. The inhibition in [6] is 77.7%; in assay [7], 85.1%; in assay [8], 30.7%; in [9], 100%; in assay [16], -2.65%; in assay [10], 6.13%. For the same molecule, the inhibition in [11] was 97%; in assay [12], 69.7%.

Regarding `CCC(=O)NCC[C@@H]1CCc2ccc3c(c21)CCO3`, the inhibition is -9.5% in [1]; 15.8% in [2]; -2.02% in [3]; 89.6% in assay [4]; -3.08% in assay [5]; -1.3% in [6]. The inhibition was 18% in [7]; 28.5% in assay [8]; -2.55% in [14]; 6.75% in assay [9]; -3.26% in assay [10]; 12.4% in [11]. The inhibition in assay [12] is 2.72%.

As for `CC(C)[C@H](CO)Nc1nc(Nc2cccc(Cl)c2)c2ncn(C(C)C)c2n1`, the inhibition is 21.1% in assay [13]; -0.08% in assay [15]; 1.19% in [1]; 38.1% in assay [2]; 17.5% in [3]; 14.4% in assay [4]. Also, the inhibition was 20.4% in assay [6]; 54.1% in [7]; 29.9% in assay [8]; 60.1% in [9]; 8.79% in assay [10]; 11.4% in [11]. Moreover, the inhibition in [12] was 11%.

As for `CN[C@@H]1CCc2[nH]c3ccc(C(N)=O)cc3c2C1`, the inhibition was -1.58% in assay [13]; 15.7% in assay [15]; 11.8% in [1]; 88.2% in assay [2]; 42.1% in assay [4]; -1.01% in [7]. In addition, the inhibition is 1.5% in [8]; -3.71% in assay [14]; 72.3% in assay [9]; 11.7% in [16]; 20.9% in assay [10]; 92% in assay [11]. Also, in assay [12], the inhibition was 67.2%.

As for `CN1C[C@H](C(=O)N[C@]2(C)O[C@@]3(O)[C@@H]4CCCN4C(=O)[C@H](Cc4ccccc4)N3C2=O)C[C@@H]2c3cccc4[nH]cc(c34)C[C@H]21`, the inhibition in assay [13] was 7.31%; in [1], 99.4%; in [2], 104%; in assay [3], 5.72%; in assay [4], 72.9%; in assay [6], 36.3%. In addition, the inhibition is 21.2% in assay [7]; 17.8% in assay [8]; -5.91% in assay [14]; 98.8% in assay [9]; 38.2% in assay [16]; 78.7% in assay [10]. Moreover, the inhibition in [11] was 91.3%; in assay [12] it was 100%.

For `CCCCCCCCCCCCC/C=C/[C@@H](O)[C@@H](N)COP(=O)(O)O`, the inhibition was 6.31% in assay [13]; 9.29% in assay [15]; 8.79% in assay [2]; 63.8% in [4]; 2.88% in assay [6]; 35.1% in assay [7]. Further, the inhibition was 0.96% in [8]; -2.5% in assay [14]; 63.5% in [9]; 6.7% in [16]; 22.7% in assay [10]; 16.1% in assay [11]. For the same molecule, the inhibition in assay [12] is 10.6%.

As for `Cc1cc(C)c(N)c(C#Cc2cccc(F)c2)n1`, the inhibition in assay [15] was -6.32%; in assay [1] it was 10.2%; in assay [2], 16.6%; in assay [3], 9.26%; in assay [4], 3.28%; in assay [6], 17.1%. The inhibition in assay [7] was 65.2%; in assay [8], -7.35%; in assay [9], 18.3%; in assay [16], -8.58%; in [10], 0.26%; in assay [11], 7.78%. In assay [12], the inhibition was 0.33%.

Take `N#Cc1c(N)nc(SCc2csc(-c3ccc(Cl)cc3)n2)c(C#N)c1-c1ccc(OCCO)cc1`: the inhibition is 6.84% in [1]; 13% in assay [2]; 64.1% in [3]; 39% in assay [4]; -3.33% in assay [5]; 11.3% in assay [6]. Also, the inhibition was 33.5% in assay [7]; 26.8% in assay [8]; -8.79% in assay [14]; 5.65% in assay [9]; 5.12% in assay [16]; 3.33% in assay [11].
